Source: patent US7112676B2, “Pyrimido compounds having antiproliferative activity” (Hoffmann-La Roche Inc., priority 2002, dated 2006)

Legend:
KDR = target: T1, KDR (Homo sapiens, UniProt P35968); experiment: KDR kinase HTRF assay; format: biochemical; details: 0.3 mM ATP, read-out: IC50 (μM) - Enzyme Inhibition Assays KDR
T1 construct: EEE-tag
Description: (§1) To determine inhibition of KDR, FGFR, EGFR, and PDGFR activity, kinase assays were conducted using an HTRF (Homogeneous Time Resolved Fluorescence) assay. This assay is described in A. J. Kolb et. al., Drug Discovery Today, 1998, 3(7), p 333.
Prior to kinase reaction, recombinant EEE-tagged KDR was activated in the presence of activation buffer (50 mM HEPES, pH 7.4, 1 mM DTT, 10% glycerol, 150 mM NaCl, 0.1 mM EDTA, 26 mM MgCl2, and 4 mM ATP). The enzyme was incubated at 4° C. for 1 hour.
(§2) Kinase activity assays were performed in 96-well polypropylene plates (Falcon) with a total volume of 90 μL in each well. Each well contained 1 μM KDR substrate (Biotin-EEEEYFELVAKKKK), 1 nM activated KDR, and a test compound with one of 8 assay concentrations ranging from 100 μM to […] (1:5 serial dilution). The kinase activity assay was done in the presence of 100 mM HEPES, pH 7.4, 1 mM DTT, 0.1 mM Na2VO4, 25 mM MgCl2, 50 mM NaCl (from KDR stock solution), 1% DMSO (from compound), 0.3 mM ATP (at Km concentration) and 0.02% BSA. The reaction was incubated at 37° C. for 30 minutes. To stop the KDR reaction, 72 μL of reaction mixture was transferred into a STOP plate containing 18 μL of revelation buffer (20 mM EDTA, 50 mM HEPES, pH 7.4, 0.02% BSA, 10 nM Eu-labelled anti-pY antibody (final conc. 2 nM), and 100 nM streptavidin (final conc. 20 nM)). After mixing, 35 μL of solution was transferred into duplicate wells of a 384-well black plate (Costar), and read at 615/665 nm on a Wallac Victor 5 reader.
(§3) Compound IC50 values were determined from duplicate sets of data, and calculated by using Excel and fitting data to equation Y=[(a−b)/{1+(X/c)^d]+b, where a and b are enzyme activity in the presence of no test inhibitor compound and an infinite amount of inhibitor test compound, respectively, c is the IC50 and d is the hill constant of the compound response. The IC50 value is the concentration of test compound that reduces by 50% the enzyme activity under the test conditions described.

EGFR = EGFR (Homo sapiens, UniProt P00533); experiment: EGFR kinase HTRF assay; format: biochemical; details: 0.5 μM ATP, read-out: IC50 (μM) - Enzyme Inhibition Assays EGFR
EGFR, sequence (P00533 25-1210, species assumed): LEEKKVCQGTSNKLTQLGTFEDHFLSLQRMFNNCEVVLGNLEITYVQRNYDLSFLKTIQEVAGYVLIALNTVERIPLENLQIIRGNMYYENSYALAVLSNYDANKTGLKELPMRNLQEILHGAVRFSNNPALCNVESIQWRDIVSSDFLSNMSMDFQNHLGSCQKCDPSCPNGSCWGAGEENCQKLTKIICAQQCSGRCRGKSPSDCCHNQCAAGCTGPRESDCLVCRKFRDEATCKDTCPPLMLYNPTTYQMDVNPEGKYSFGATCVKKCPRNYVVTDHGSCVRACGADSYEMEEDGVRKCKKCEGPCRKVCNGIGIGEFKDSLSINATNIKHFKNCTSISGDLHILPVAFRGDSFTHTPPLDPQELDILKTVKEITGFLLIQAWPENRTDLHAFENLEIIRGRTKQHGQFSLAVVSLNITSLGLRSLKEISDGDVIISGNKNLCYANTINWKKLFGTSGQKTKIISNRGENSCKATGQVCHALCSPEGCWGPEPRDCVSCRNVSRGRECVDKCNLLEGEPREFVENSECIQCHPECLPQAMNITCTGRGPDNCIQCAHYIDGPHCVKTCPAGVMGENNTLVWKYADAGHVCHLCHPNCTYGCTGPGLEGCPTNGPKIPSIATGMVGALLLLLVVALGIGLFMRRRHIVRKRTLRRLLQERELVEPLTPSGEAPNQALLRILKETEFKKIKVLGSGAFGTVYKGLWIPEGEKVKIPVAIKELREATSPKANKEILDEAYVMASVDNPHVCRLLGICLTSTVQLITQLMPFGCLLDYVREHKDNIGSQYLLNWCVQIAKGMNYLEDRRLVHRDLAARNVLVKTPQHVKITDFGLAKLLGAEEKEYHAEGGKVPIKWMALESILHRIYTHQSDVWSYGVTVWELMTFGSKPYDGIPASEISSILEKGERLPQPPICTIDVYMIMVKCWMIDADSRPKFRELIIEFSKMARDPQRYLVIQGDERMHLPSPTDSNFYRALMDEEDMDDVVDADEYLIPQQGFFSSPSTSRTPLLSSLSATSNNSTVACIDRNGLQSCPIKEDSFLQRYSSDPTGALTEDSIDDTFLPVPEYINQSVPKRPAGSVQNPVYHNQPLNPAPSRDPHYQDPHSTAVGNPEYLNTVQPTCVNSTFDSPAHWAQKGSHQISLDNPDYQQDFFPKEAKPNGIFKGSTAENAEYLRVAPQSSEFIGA
Description: as §1, §2
The EGFR kinase activity assay was performed with 1 μM substrate (Biotin-EEEEYFELV), 1.5 nM EGFR, test compounds, 100 mM HEPES, pH 7.4, 1 mM DTT, 5 mM MgCl2, 2 mM MnCl2, 1% DMSO, 0.5 μM ATP (Km for EGFR), 0.1 mM Na2VO4, and 0.02% BSA. The rest of the assay was performed in the same manner as the KDR assay.
as §3

FGF-stimulated HUVEC = FGF-stimulated HUVEC proliferation assay (BrdU); format: cell-based; details: Homo sapiens, FGF 5 ng per mL, BrdU labeling, 24 hour exposure, read-out: IC50 (μM) of VEGF and FGF-Stimulated HUVEC Proliferation Assays HUVEC/bFGFR
Description: The antiproliferative activity of test compounds of this invention in cell-based assays was evaluated by BrdU assay using the BrdU kit (Roche Biochemicals 1-647-229). Human umbilical vein endothelial cells (HUVEC, Clonetics CC-2519) were cultured in EGM-2 (Clonetics CC-3162) medium and seeded at 10000 cells per well in a volume of 200 μL of EGM-2 (Clonetics CC-3162) media in a 96-well flat bottom plates (Costar 3595) overnight. After 24 hours of growth at 37° C. with 5% CO2, the incubation media was removed slowly by aspiration and the content of each well was washed with 300 μL pre-warmed EBM-2 (Clonetics CC-3156) containing 50 μg per mL of gentamycin and 50 ng per mL of amphotercin-B (Clonetics CC-4083). Subsequently, the remaining media was again aspirated and replaced with 160 μL per well of serum starvation media (EBM-2 supplemented with 1% heat inactivated FBS (Clonetics CC-4102), 50 μg per mL gentamycin and 50 ng per mL of amphotercin-B (Clonetics CC-4083), 10 units per mL of Wyeth-Ayerst heparin (NDC0641-0391-25), and 2 mM L-glutamine (GIBCO 25030-081). After serum starving the cells for 24 hours, 20 μL of test compound at 10× test concentration in serum starvation medium with 2.5% DMSO was added to the appropriate wells. The control wells contained 20 μL of serum starvation medium with 2.5% DMSO. Plates were returned to the incubator for 2 hours. After pre-incubating the cells with the test compounds for 2 hours, 20 μL of growth factors at 10× assay concentration diluted in serum starvation media, FGF at 50 ng per mL, or VEGF (R&D systems 293-VE) at 200 ng per mL were added. The final concentration of FGF in the assay was 5 ng per mL and the final concentration of VEGF in the assays was 20 ng per mL. The growth factor free control wells had 20 μL per well of serum starvation media with the same amount of BSA as the wells with growth factors. The plates were returned to the incubator for an additional 22 hours.
After 24 hour exposure to the test compounds, the cells were labeled with BrdU (Roche Biochemicals 1-647-229), by adding 20 μL per well of BrdU labeling reagent that has been diluted (1:100) in serum starvation medium. The plates were then returned to the incubator for 4 hours. The labeling medium was removed by draining the medium onto paper towels. The cells were fixed and DNA denatured by adding 200 μL of fixation/denaturation solution to each well and incubating at room temperature for 45 minutes. The fixation/denaturation solution was drained onto paper towels and to each well was added 100 μL of anti-BrdU-POD and the wells were incubated for 2 hours at room temperature. The antibody solution was removed and the wells were each washed 3–4 times with 300 μl PBS. 100 μL of the TMB substrate solution was added to each well and the wells were incubated at room temperature for 5–8 minutes. The reaction was then stopped by adding 100 μL per well of 1 M phosphoric acid. The plates were read at 450 nm with reference wavelength of 650 nm. The percent inhibition for each test compound was calculated by subtracting the absorbency of the blank (no cells) wells from all wells, then subtracting the division of the average absorbency of each test duplicate by the average of the controls from 1. The final product was then multiplied by 100 (% of inhibition=(1−average absorbency of test duplicate/average of control)100). The IC50 value is the concentration of test compound that inhibits by 50% BrdU labeling, and is a measure of inhibition of cell proliferation. The IC50 is determined from the linear regression of a plot of the logarithm of the concentration versus percent inhibition.

Measured: IC50

T1 sequence (P35968 20-1356, species assumed): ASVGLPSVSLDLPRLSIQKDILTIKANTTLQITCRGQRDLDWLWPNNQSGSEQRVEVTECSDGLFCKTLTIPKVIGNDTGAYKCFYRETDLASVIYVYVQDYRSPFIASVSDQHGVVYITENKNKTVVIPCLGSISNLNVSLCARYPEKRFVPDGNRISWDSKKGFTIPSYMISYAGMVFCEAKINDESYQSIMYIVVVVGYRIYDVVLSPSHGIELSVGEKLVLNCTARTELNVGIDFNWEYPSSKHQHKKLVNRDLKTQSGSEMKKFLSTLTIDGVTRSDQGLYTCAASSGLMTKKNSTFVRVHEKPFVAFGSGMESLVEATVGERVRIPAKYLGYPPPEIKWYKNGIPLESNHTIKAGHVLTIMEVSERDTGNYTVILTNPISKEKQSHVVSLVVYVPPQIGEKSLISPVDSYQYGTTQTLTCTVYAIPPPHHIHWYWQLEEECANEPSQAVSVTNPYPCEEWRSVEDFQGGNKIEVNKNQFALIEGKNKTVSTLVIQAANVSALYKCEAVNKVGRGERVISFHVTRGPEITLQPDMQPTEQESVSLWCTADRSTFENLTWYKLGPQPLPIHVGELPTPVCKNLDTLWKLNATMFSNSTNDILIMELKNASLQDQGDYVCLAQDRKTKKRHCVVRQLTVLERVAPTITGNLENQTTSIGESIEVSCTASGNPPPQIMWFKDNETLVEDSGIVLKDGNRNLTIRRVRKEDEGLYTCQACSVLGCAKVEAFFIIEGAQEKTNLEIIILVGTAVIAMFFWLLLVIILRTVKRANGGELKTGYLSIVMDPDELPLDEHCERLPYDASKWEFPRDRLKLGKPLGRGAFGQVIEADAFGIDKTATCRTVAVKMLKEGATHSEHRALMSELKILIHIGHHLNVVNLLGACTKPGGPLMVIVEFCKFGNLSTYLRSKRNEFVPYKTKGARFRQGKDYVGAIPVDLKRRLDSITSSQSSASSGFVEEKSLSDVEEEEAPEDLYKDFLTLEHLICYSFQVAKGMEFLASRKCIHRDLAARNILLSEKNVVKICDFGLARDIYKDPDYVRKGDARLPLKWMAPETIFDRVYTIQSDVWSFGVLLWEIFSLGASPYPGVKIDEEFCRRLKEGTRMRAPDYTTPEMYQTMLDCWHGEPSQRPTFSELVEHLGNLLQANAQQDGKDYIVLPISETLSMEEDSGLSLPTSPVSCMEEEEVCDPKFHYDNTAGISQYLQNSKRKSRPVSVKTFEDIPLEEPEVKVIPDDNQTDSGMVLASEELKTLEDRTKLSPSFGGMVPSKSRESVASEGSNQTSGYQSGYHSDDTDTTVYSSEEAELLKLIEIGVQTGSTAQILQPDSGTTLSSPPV

COc1ccc(N2C(=O)N(c3cccc(C(N)=O)c3)c3nc(Nc4ccccc4)ncc3C2C)c(F)c1 (racemic) [Example 10, (±)-3-[3-(2-Fluoro-4-methoxy-phenyl)-4-methyl-2-oxo-7-phenylamino-3,4-dihydro-2H-pyrimido[4,5-d]pyrimidin-1-yl]-benzamide]
< 10 µM: all assays above

COc1ccc(N2C(=O)N([C@H](C)CO)c3nc(Nc4ccccc4)ncc3[C@@H]2C)cc1 [Example 15b, 1-(2-Hydroxy-1-(R)-methyl-ethyl)-3-(4-methoxy-phenyl)-4-(S)-methyl-7-phenylamino-3,4-dihydro-1H-pyrimido[4,5-d]pyrimidin-2-one]
< 10 µM: all assays above

COc1ccc(N2C(=O)N(c3ccc(OC)cc3)C(C)c3cnc(Nc4ccccc4)nc32)cc1 (racemic) [Example 4b, (±)-1,3-Bis-(4-methoxy-phenyl)-4-methyl-7-phenylamino-3,4-dihydro-1H-pyrimido[4,5-d]pyrimidin-2-one]
< 10 µM: all assays above

COc1ccc(N2C(=O)N(c3cccc(C#N)c3)c3nc(Nc4ccccc4)ncc3C2C)c(F)c1 (racemic) [Example 9b, (±)-3-[3-(2-Fluoro-4-methoxy-phenyl)-4-methyl-2-oxo-7-phenylamino-3,4-dihydro-2H-pyrimido[4,5-d]pyrimidin-1-yl]-benzonitrile]
< 10 µM: all assays above

COc1ccc(N2C(=O)N(c3ccccc3)c3nc(Nc4ccccc4)ncc3[C@@H]2C)cc1 (single isomer, unassigned) [Example 3]
< 10 µM: all assays above

COc1ccc(N2C(=O)N(c3ccccc3)c3nc(Nc4ccccc4)ncc3C2C)c(F)c1 (racemic) [Example 8d, (±)-3-(2-Fluoro-4-methoxy-phenyl)-4-methyl-1-phenyl-7-phenylamino-3,4-dihydro-1H-pyrimido[4,5-d]pyrimidin-2-one]
< 10 µM: all assays above

COc1ccc(N2C(=O)N(c3ccccc3)c3nc(Nc4ccccc4)ncc3C2C)cc1 (racemic) [Example 1g, (±)-3-(4-Methoxy-phenyl)-4-methyl-1-phenyl-7-phenylamino-3,4-dihydro-1H-pyrimido[4,5-d]pyrimidin-2-one]
< 10 µM: all assays above

COc1ccc(N2C(=O)N(c3cccc(C(N)=O)c3)c3nc(Nc4ccccc4)ncc3C2C)cc1 (racemic) [Example 6, (±)-3-[3-(4-Methoxy-phenyl)-4-methyl-2-oxo-7-phenylamino-3,4-dihydro-2H-pyrimido[4,5-d]pyrimidin-1-yl]-benzamide]
< 10 µM: all assays above

COc1ccc(N2C(=O)N(c3cccc(C#N)c3)c3nc(Nc4ccccc4)ncc3C2C)cc1 (racemic) [Example 5b, (±)-3-[3-(4-Methoxy-phenyl)-4-methyl-2-oxo-7-phenylamino-3,4-dihydro-2H-pyrimido[4,5-d]pyrimidin-1-yl]-benzonitrile]
< 10 µM: all assays above
